Earlier results as cited in patent US7442709B2, “N3-substituted imidazopyridine c-Kit inhibitors” (OSI Pharmaceuticals, Inc., priority 2003, dated 2008).
Counter-ions that a name gives are not always drawn.

Tests used:
[1] = system: MO7e human leukemia cells
[2] = system: MO7e human leukemia cells; settings: GM-CSF stimulation

**Q.** Which results are given for `Cc1ccc(NC(=O)c2ccc(CN3CCN(C)CC3)cc2)cc1Nc1nccc(-c2cccnc2)n1` [Gleevec, imatinib mesylate]?
**A.** Kit ligand-stimulated growth of MO7e human leukemia cells ([1]; Kit ligand stimulation): inhibited; Apoptosis in MO7e human leukemia cells ([1]; under Kit ligand-stimulated growth conditions): induces apoptosis; GM-CSF stimulated growth of MO7e human leukemia cells [2]: not affected
